# Measured values taken from publication PMC8472965, “BmK86-P1, a New Degradation Peptide with Desirable Thermostability and Kv1.2 Channel-Specific Activity from Traditional Chinese Scorpion Medicinal Material” (Toxins, 2021).
# Positions of bridges follow the written chain, without caps; N, C: chain ends. Residues, ends and D or L forms follow the SMILES beside them.
# Key:
# [1] = Thermal stability of secondary structure by CD spectroscopy; assay type: physicochemical; conditions: 0.2 mg/mL in ddH2O, 20, 35, 50, 65, 80 and 95 °C, then returned to 20 °C, average of three scans
# Experimental: In order to characterize the thermal stability of BmK86-P1, we analyzed the secondary structure of BmK86-P1 peptide in aqueous solutions at different temperatures (20 °C, 35 °C, 50 °C, 65 °C, 80 °C and 95 °C) by CD spectroscopy.
# The secondary structures of BmK86-P1 and its mutants in water were measured by circular dichroism (CD) spectroscopy as previously described using a ChirascanTM V^100 spectrometer (Applied Photophysics, Surrey, UK). All the peptides were dissolved into ddH2O at a concentration of 0.2 mg/mL. At a range of wavelengths from 180 to 260 nm, the absorption spectra of peptides were recorded at room temperature. The speed scanning was 1 nm/s with a response time of 1 s. […] (deg·cm^2·dmol^−1).
# [2] = biological target: T1, hKv1.2-T383V (Homo sapiens, UniProt P16389, T383V); assay: Whole-cell patch clamp, hKv1.2 channel mutant T383V; assay type: cell-based; conditions: 100 nM peptide, HEK293T, mean ± S.E., n ≥ 3, SEM
# T1 construct: expressed in transfected cells; host or cells: HEK293T
# T1 sequence (P16389 whole entry T383V): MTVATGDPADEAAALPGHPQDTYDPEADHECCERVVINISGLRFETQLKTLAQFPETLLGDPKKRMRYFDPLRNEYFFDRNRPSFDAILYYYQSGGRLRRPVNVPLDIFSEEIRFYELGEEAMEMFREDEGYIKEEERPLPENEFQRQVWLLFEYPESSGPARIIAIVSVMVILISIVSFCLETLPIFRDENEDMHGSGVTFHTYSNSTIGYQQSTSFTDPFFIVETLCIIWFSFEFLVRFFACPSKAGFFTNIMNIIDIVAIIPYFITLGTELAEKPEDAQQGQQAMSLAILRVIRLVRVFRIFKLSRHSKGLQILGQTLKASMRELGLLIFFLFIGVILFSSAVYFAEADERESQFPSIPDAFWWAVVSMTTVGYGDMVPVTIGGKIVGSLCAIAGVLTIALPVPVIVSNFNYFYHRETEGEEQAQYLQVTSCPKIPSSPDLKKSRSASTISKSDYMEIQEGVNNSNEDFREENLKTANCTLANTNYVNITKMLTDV
# Experimental: (§1) To determine the functional sites of the hKv1.2 channel responsible for the selectivity of BmK86-P1, six hKv1.2 mutants were obtained based on sequence differences between the pore regions of the hKv1.2 and hKv1.1 channels (Figure 4A). Then, the activities of 100 nM BmK86-P1 on these six mutant channels were tested. […] The other three mutant channels (hKv1.2-D352E, hKv1.2-R354A and hKv1.2-P359S) still kept similar sensitivities toward BmK86-P1 compared with the wild-type hKv1.2 channel (Figure 4H,I,K,N).
# (§2) All potassium channel expression vectors were given by others or constructed by ourselves. HEK293T cells were cultured in Dulbecco’s modified Eagle medium (Gibco, Pittsburgh, PA, USA) with 10% fetal bovine serum and penicillin/streptomycin (100 units/mL) in a 5% CO2 incubator at 37 °C. Potassium channel expression vectors and pEGFP-N1 were co-transfected into HEK293T cells using TurboFect in vitro Transfection Reagent (Thermo Scientific, Waltham, MA, USA) according to the manufacturer’s instructions. The potassium currents were recorded after transfection for 1 to 3 days.
# (§3) The channel currents were measured and recorded by whole-cell patch clamp technology according to previously published references. […] The channel currents were recorded at room temperature (~25 °C) using an EPC 10 patch clamp amplifier. […]
# [3] = biological target: T2, hKv1.2 channel (Homo sapiens, UniProt P16389); assay: Whole-cell patch clamp, hKv1.2 channel overexpressed in HEK293T cells; assay type: cell-based; conditions: mean ± S.E., n ≥ 3, SEM
# T2 construct: expressed in transfected cells; host or cells: HEK293T
# T2 sequence (P16389 whole entry): as the sequence (P16389 whole entry T383V) above, with V383T counted along it
# Experimental: (§4) To investigate the electrophysiological activities of BmK86-P1, the whole-cell patch clamp technique was applied to test the effects of BmK86-P1 on multiple potassium channels. The hKv1.1, hKv1.2, hKv1.3, hKv1.6, hKv3.2, mKv4.1, rKv4.2, rKv4.3 and hERG channels were overexpressed in HEK293T cells, then the inhibitory effects of BmK86-P1 at 1 μM on these potassium channels were measured. […] To further investigate the affinity of BmK86-P1 inhibiting the hKv1.2 channel, a dose-dependent study was performed by examining the inhibitory effects of different concentrations of BmK86-P1.
# as §2
# (§5) The channel currents were measured and recorded by whole-cell patch clamp technology according to previously published references. The internal patch pipette solution and the bath solution were prepared as previously described. All the test peptides were dissolved into bath solution supplemented with 0.01% BSA. An MPS-2 multichannel microperfusion system (INBIO Inc., Wuhan, China) was applied to change the external recording bath solution. The infusion time of the peptides should not exceed 20 min to maintain good cell conditions during electrophysiological recordings. The channel currents were recorded at room temperature (~25 °C) using an EPC 10 patch clamp amplifier. The results were presented as the means ± S.E., and in every sample at least three cells (n ≥ 3) were examined.
# (§6) The ClampFit (Molecular Devices, Sunnyvale, CA, USA) and SigmaPlot software ([…], Chicago, IL, USA) were used to analyze the recorded data. […]
# [4] = biological target: T3, hKv1.2-P359S (Homo sapiens, UniProt P16389, P359S); assay: Whole-cell patch clamp, hKv1.2 channel mutant P359S; assay type: cell-based; conditions: 100 nM peptide, HEK293T, mean ± S.E., n ≥ 3, SEM
# T3 construct: expressed in transfected cells; host or cells: HEK293T
# T3 sequence (P16389 whole entry P359S): as the sequence (P16389 whole entry T383V) above, with P359S, V383T counted along it
# Experimental: as §1, §2, §3
# [5] = biological target: T4, mKv4.1 channel (Mus musculus, UniProt Q03719); assay: Whole-cell patch clamp, mKv4.1 channel overexpressed in HEK293T cells; assay type: cell-based; conditions: 1 μM peptide, mean ± S.E., n ≥ 3, SEM
# T4 construct: expressed in transfected cells; host or cells: HEK293T
# T4 sequence (Q03719 1-651): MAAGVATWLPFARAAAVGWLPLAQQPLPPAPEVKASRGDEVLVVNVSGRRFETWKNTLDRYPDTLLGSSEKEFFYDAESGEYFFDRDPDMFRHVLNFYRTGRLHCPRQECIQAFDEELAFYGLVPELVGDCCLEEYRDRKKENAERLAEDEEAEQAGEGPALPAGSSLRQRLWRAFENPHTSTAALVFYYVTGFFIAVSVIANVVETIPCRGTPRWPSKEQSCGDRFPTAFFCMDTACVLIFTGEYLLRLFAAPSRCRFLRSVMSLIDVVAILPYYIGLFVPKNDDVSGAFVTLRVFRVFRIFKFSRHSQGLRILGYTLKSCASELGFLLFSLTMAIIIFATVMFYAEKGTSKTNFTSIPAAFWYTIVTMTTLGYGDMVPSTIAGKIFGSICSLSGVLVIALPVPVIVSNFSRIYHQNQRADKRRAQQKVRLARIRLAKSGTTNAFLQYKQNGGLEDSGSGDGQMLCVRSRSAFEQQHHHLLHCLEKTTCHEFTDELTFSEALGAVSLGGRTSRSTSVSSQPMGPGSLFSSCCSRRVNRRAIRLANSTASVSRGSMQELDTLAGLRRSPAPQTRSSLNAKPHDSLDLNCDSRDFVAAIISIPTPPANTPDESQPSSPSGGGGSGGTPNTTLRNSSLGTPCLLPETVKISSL
# Experimental: as §4
# (§7) All potassium channel expression vectors were given by others or constructed by ourselves. HEK293T cells were cultured in Dulbecco’s modified Eagle medium (Gibco, Pittsburgh, PA, USA) with 10% fetal bovine serum and penicillin/streptomycin (100 units/mL) in a 5% CO2 incubator at 37 °C. […] The potassium currents were recorded after transfection for 1 to 3 days.
# as §3, §6
# [6] = biological target: T5, hKv1.2-M1 chimeric channel (Homo sapiens, UniProt P16389, D352E/P359S/Q357H/R354A/T383V/V381Y); assay: Whole-cell patch clamp, chimeric channel hKv1.2-M1 (S5-S6 linker of hKv1.2 replaced by that of hKv1.1); assay type: cell-based; conditions: 100 nM peptide, HEK293T, mean ± S.E., n ≥ 3, SEM
# T5 construct: expressed in transfected cells; host or cells: HEK293T
# T5 sequence (P16389 whole entry D352E/R354A/Q357H/P359S/V381Y/T383V): as the sequence (P16389 whole entry T383V) above, with D352E, R354A, Q357H, P359S, V381Y counted along it
# Experimental: The binding interface of potassium channels for scorpion toxins is the pore region, which includes the turret and filter regions. We first investigated whether BmK86-P1 peptide binds to the pore region of the hKv1.2 channel.
# as §2
# as §5, with “The infusion time of the peptides should not exceed 20 min to maintain good cell conditions during electrophysiological recordings.” left out, “The results were presented as the means ± S.E., and in every sample at least three cells (n ≥ 3) were examined.” left out
# [7] = biological target: T6, hKv1.6 channel (Homo sapiens, UniProt P17658); assay: Whole-cell patch clamp, hKv1.6 channel overexpressed in HEK293T cells; assay type: cell-based; conditions: 1 μM peptide, mean ± S.E., n ≥ 3, SEM
# T6 construct: expressed in transfected cells; host or cells: HEK293T
# T6 sequence (P17658 whole entry): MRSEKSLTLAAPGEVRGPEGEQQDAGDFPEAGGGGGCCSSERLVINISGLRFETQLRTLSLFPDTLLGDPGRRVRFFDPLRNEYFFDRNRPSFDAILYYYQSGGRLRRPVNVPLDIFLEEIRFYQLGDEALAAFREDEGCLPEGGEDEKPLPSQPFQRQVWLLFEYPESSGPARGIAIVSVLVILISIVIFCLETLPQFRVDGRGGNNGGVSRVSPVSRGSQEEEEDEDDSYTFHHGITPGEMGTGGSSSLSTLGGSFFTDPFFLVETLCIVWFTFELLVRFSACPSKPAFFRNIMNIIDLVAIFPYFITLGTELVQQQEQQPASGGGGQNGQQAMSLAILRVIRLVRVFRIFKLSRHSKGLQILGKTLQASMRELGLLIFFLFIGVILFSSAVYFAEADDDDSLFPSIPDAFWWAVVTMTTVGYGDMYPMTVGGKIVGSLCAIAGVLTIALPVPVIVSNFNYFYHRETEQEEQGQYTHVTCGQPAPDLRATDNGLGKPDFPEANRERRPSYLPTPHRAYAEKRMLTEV
# Experimental: as §4, §7, §3, §6
# [8] = biological target: T7, hERG channel (Homo sapiens, UniProt Q12809); assay type: cell-based; conditions: 1 μM peptide; whole-cell patch clamp, HEK293T; mean ± S.E., n ≥ 3; SEM
# T7 construct: expressed in transfected cells; host or cells: HEK293T
# T7 sequence (Q12809 whole entry): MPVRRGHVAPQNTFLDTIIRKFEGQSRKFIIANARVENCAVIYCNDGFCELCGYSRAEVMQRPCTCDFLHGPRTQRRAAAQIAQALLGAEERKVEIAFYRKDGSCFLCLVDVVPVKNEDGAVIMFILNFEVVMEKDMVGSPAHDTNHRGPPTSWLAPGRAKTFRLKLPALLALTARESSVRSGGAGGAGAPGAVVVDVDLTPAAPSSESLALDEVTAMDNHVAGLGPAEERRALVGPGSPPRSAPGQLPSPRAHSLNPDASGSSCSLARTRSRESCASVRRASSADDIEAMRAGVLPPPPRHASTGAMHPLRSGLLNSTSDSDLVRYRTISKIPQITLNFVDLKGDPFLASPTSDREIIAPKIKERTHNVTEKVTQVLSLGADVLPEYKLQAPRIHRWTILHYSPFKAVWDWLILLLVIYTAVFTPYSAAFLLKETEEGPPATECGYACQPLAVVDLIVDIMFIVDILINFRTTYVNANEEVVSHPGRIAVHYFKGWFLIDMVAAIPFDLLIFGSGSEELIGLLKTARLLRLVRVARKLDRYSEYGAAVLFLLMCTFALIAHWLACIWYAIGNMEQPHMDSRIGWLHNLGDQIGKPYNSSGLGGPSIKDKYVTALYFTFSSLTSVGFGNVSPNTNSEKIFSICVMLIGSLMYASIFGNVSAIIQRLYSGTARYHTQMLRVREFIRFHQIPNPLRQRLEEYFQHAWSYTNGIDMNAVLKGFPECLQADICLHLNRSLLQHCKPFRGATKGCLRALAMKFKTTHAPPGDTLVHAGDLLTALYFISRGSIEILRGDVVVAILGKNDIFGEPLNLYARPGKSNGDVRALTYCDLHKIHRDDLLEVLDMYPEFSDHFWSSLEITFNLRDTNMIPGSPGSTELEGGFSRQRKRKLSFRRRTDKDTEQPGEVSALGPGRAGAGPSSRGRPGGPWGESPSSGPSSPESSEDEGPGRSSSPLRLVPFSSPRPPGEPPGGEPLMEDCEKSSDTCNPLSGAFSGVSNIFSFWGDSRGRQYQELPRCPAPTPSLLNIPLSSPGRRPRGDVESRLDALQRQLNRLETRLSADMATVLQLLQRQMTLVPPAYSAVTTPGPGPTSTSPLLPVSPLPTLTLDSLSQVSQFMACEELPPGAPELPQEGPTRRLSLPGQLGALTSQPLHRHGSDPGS
# Experimental: as §4, §7, §3, §6
smiles,measurement,setting,value
"CC[C@H](C)[C@@H]1NC(=O)[C@@H]2CSSC[C@H](NC(=O)[C@H](C)N)C(=O)N[C@@H](CO)C(=O)N[C@@H](CCCCN)C(=O)N3CCC[C@H]3C(=O)N[C@H]3CSSC[C@H](NC(=O)[C@H](CCCNC(=N)N)NC(=O)CNC(=O)[C@H](CC(N)=O)NC1=O)C(=O)N[C@@H](Cc1c[nH]cn1)C(=O)N[C@H](C(=O)N[C@@H](Cc1ccc(O)cc1)C(=O)N[C@@H](Cc1ccc(O)cc1)C(=O)O)CSSC[C@H](NC(=O)[C@H](Cc1ccc(O)cc1)NC(=O)[C@H](CCCCN)NC(=O)[C@H](CCCNC(=N)N)NC3=O)C(=O)N[C@@H]([C@@H](C)CC)C(=O)N[C@@H](CC(=O)O)C(=O)N[C@@H](CCCCN)C(=O)NCC(=O)N[C@@H](C)C(=O)N[C@@H](CCCNC(=N)N)C(=O)N[C@@H](CC(N)=O)C(=O)NCC(=O)N[C@@H](CCCCN)C(=O)N2 [BmK86-P1] (H-ACSKPCRKYCIDKGARNGKCINGRCHCYY-OH; disulfide 2-20, 6-25, 10-27 (inferred); N-terminus and C-terminus assumed)",thermal stability of secondary structure,[1],thermally stable
same,inhibition of hKv1.2-T383V channel currents,[2],32.1 ± 2.8%
same,inhibition of hKv1.2 channel currents,[3]; 100 nM peptide,74.1 ± 3.2%
same,inhibition of hKv1.2 channel currents,"[3]; 1 μM peptide, room temperature (~25 °C)",88.6 ± 2.2%
same,IC50,"[3]; dose-response curve fitted with Hill equation, read-out: IC50, inhibition of the hKv1.2 channel",28.5 ± 6.3 nM
same,inhibition of hKv1.2-P359S channel currents,[4],72.4 ± 5.5%
same,inhibition of Kv4.1 channel currents,[5],3.4 ± 1.1%
same,inhibition of hKv1.2-M1 chimeric channel currents,[6],1.0 ± 0.2%
same,inhibition of hKv1.6 channel currents,[7],11.0 ± 1.2%
same,inhibition of hERG channel currents,[8],13.3 ± 3.3%
